Columns and labels:
Settings in all cases: stereoisomer not certain
[1] = RP, Merck LiChrospher RP-18, 250 × 4 mm, 5 µm, 35 °C, 0.3 mL/min, estimated dead time 6.7 min; A: water + 0.5% formic acid; B: acetonitrile + 0.5% formic acid; gradient (min/%B) 0/5 10/5 30/15 45/20 65/20 95/54 110/63 115/5 135/5
[2] = RP, Waters ACQUITY UPLC HSS T3, 100 × 2.1 mm, 50 °C; A: water + 0.1% formic acid, pH 3; B: 30% methanol + 70% acetonitrile + 0.1% formic acid, pH 3; gradient (min/%B) 0/5 1/8 2/15 3/40 4/70 4.5/100 5/100 6.4/100 6.6/5 6.8/5 7/5
[3] = RP, Phenomenex Synergi Hydro-RP, 250 × 2 mm, 4 µm, 25 °C, 0.2 mL/min, estimated dead time 2.5 min; A: water + 0.1% formic acid, pH 3; B: acetonitrile + 0.1% formic acid, pH 3; gradient (min/%B) 0/0.5 7/0.5 12/12.5 25/16.3 47/35 48/65 50/65 50.1/0.5
[4] = RP, Merck Supelco SUPELCOSIL LC-C18, 250 × 4.6 mm, 5 µm, 40 °C, 1 mL/min, estimated dead time 2.6 min; A: water + 0.1% trifluoroacetic acid, pH 2; B: acetonitrile + 0.1% trifluoroacetic acid, pH 2; gradient (min/%B) 0/5 45/35 47/75 49/35 50/5
[5] = RP, 100 × 0.5 mm, 2.7 µm, 45 °C, 0.015 mL/min, estimated dead time 0.83 min; A: water + 0.9% formic acid; B: acetonitrile + 0.9% formic acid; gradient (min/%B) 0/1 0.5/1 4/95 4.5/1 5/1
[6] = RP, Waters Atlantis T3, 100 × 2.1 mm, 3 µm, 40 °C, 0.3 mL/min, estimated dead time 0.73 min; A: water + 0.1% trifluoroacetic acid, pH 2; B: acetonitrile + 0.1% trifluoroacetic acid, pH 2; gradient (min/%B) 0/10 1/10 6/40 7/50 8/50 14/70 16/80 20/10 25/10
[7] = RP, Phenomenex Synergi Hydro-RP, 150 × 2 mm, 4 µm, 30 °C, 0.5 mL/min, estimated dead time 0.6 min; A: water + 0.1% formic acid, pH 3; B: acetonitrile + 0.1% formic acid, pH 3; gradient (min/%B) 0/5 1/5 35/45 40/100 45/100
[8] = RP, 50 × 0.5 mm, 2.7 µm, 35 °C, 0.01 mL/min, estimated dead time 0.62 min; A: water + 0.1% formic acid, pH 3; B: acetonitrile + 0.1% formic acid, pH 3; gradient (min/%B) 0/5 12/95 14/95 16/5
[9] = RP, Agilent InfinityLab Poroshell 120 EC-C18, 100 × 3 mm, 2.7 µm, 25 °C, 0.4 mL/min, estimated dead time 1.1 min; A: water + 0.1% formic acid, pH 3; B: acetonitrile + 0.1% formic acid, pH 3; gradient (min/%B) 0/5 10/25 20/40 24/90 25/90 26/5 30/5
[10] = RP, Waters ACQUITY UPLC BEH Shield RP18, 100 × 2.1 mm, 1.7 µm, 30 °C, 0.6 mL/min, estimated dead time 0.37 min; A: water + 0.1% formic acid, pH 3; B: acetonitrile + 0.1% formic acid, pH 3; gradient (min/%B) 0/0 2/0 7/10 22/95 22.1/0 26/0
[11] = RP, Phenomenex Luna Omega Polar C18, 100 × 2.1 mm, 1.6 µm, 40 °C, 0.5 mL/min, estimated dead time 0.44 min; A: water + 0.5% formic acid; B: acetonitrile + 0.5% formic acid; gradient (min/%B) 0/5 3/50 3.1/100 5/100 5.1/5 7/5
[12] = RP, Agilent ZORBAX RRHD Eclipse Plus C18, 50 × 2.1 mm, 1.8 µm, 30 °C, 0.4 mL/min, estimated dead time 0.28 min; A: water + 0.1% formic acid, pH 3; B: acetonitrile + 0.1% formic acid, pH 3; gradient (min/%B) 0/1 5/10 8/25 9.1/99 10/99 12/99
[13] = RP, Phenomenex Luna C18, 150 × 4.6 mm, 3 µm, 25 °C, 0.5 mL/min, estimated dead time 3.2 min; A: water + 0.1% formic acid, pH 3; B: acetonitrile + 0.1% formic acid, pH 3; gradient (min/%B) 0/0 30/30 35/40 50/80 52/80 60/0 65/0
[14] = RP, Waters ACQUITY UPLC BEH Shield RP18, 150 × 2.1 mm, 1.7 µm, 40 °C, 0.4 mL/min, estimated dead time 0.83 min; A: water + 0.1% formic acid, pH 3; B: acetonitrile + 0.1% formic acid, pH 3; gradient (min/%B) 0/0 30/50 31/100 37/100 37.1/0
[15] = RP, Waters ACQUITY UPLC BEH C18, 100 × 2.1 mm, 1.7 µm, 65 °C, 0.4 mL/min, estimated dead time 0.55 min; A: water + 0.1% formic acid, pH 3; B: 80% acetonitrile + 20% acetone + 0.1% formic acid, pH 3; gradient (min/%B) 0/0 5/100 5.5/0 6/0
[16] = RP, Phenomenex Luna Omega Polar C18, 100 × 2.1 mm, 1.6 µm, 40 °C, 0.5 mL/min, estimated dead time 0.44 min; A: water + 0.1% formic acid + 10 mM ammonium formate; B: acetonitrile; gradient (min/%B) 0/5 8/20 10/100 12/100 12.1/5 14/5
[17] = RP, Agilent ZORBAX RRHD Eclipse Plus C18, 50 × 2.1 mm, 1.8 µm, 30 °C, 0.4 mL/min, estimated dead time 0.28 min; A: water + 0.1% formic acid, pH 3; B: acetonitrile + 0.1% formic acid, pH 3; gradient (min/%B) 0/1 5/10 8/25 9.1/99 10/99 12/1
[18] = RP, Agilent ZORBAX Eclipse XDB-C18, 100 × 2.1 mm, 1.8 µm, 50 °C, 0.4 mL/min, estimated dead time 0.55 min; A: water + 0.1% formic acid, pH 3; B: methanol + 0.1% formic acid, pH 3; gradient (min/%B) 0/2 10/100 14.5/100 14.51/2 16.5/2
[19] = RP, Waters ACQUITY UPLC HSS T3, 100 × 2.1 mm, 1.8 µm, 30 °C, 0.4 mL/min, estimated dead time 0.55 min; A: water + 0.1% formic acid, pH 3; B: acetonitrile + 0.1% formic acid, pH 3; gradient (min/%B) 0/0 2/0 15/100 22/100 22.1/0 26/0
[20] = Other, Phenomenex Kinetex PFP, 100 × 4.6 mm, 5 µm, 45 °C, 0.6 mL/min, estimated dead time 1.8 min; A: water + 0.1% trifluoroacetic acid, pH 2; B: methanol; gradient (min/%B) 0/40 20/72 21/40
[21] = Other, Phenomenex Kinetex PFP, 100 × 4.6 mm, 2.6 µm, 35 °C, 1.5 mL/min, estimated dead time 0.71 min; A: water + 0.1% trifluoroacetic acid, pH 2; B: acetonitrile + 0.1% trifluoroacetic acid, pH 2; gradient (min/%B) 0/1 7/7.5 14/7.6 17/10 18.5/12 20/12.5 24/30 25/90 25.1/1 32/1
[22] = RP, 150 × 2.1 mm, 2.6 µm, 40 °C, 0.35 mL/min, estimated dead time 0.94 min; A: water + 0.1% formic acid, pH 3; B: acetonitrile + 0.1% formic acid, pH 3; gradient (min/%B) 0/0 1/0 12.5/100 14/100 14.2/0 15/0
[23] = RP, 150 × 2.1 mm, 2.6 µm, 40 °C, 0.35 mL/min, estimated dead time 0.94 min; A: water + 0.1% formic acid, pH 3; B: acetonitrile + 0.1% formic acid, pH 3; gradient (min/%B) 0/0 1/5 7/45 8.5/80 10.5/80 11/5 12/5

Row | Structure (SMILES) | LC retention time [1] | LC retention time [4] | LC retention time [5] | LC retention time [7] | LC retention time [8] | LC retention time [9] | LC retention time [10] | LC retention time [11] | LC retention time [13] | LC retention time [14] | LC retention time [16] | LC retention time [18] | LC retention time [19] | LC retention time [20] | LC retention time [21] | further results
1 | O=c1c(O)c(-c2ccc(O)cc2)oc2cc(O)cc(O)c12 [Kaempferol] | 97.6 min | 43.8 min | 3.2 min | 26.7 min | 6.31 min | 14.1 min | 16.6 min | 3.7 min | 37.7 min | 24.5 min | 9.66 min | 6.86 min | 11.6 min |  |  | LC retention time [2]: 3.88 min; LC retention time [3]: 52.3 min; LC retention time [6]: 10.2 min; LC retention time [12]: 9.29 min; LC retention time [15]: 3.02 min; LC retention time [17]: 9.16 min
2 | COc1cc(C=O)ccc1O [Vanillin] | 54.7 min |  | 2.71 min |  | 3.51 min | 8.04 min | 10.1 min | 2.44 min | 21.1 min | 7.83 min | 5.38 min | 4.06 min | 9.32 min | 6.9 min |  | LC retention time [2]: 3.46 min; LC retention time [15]: 2.03 min
3 | COC(=O)c1ccc(O)c(O)c1 [Methyl 3,4-dihydroxybenzoate] |  |  |  |  |  |  |  |  |  |  |  |  |  |  | 15.3 min | 
4 | COC(=O)c1cc(O)c(O)c(O)c1 [Methyl 3,4,5-trihydroxybenzoate] |  |  |  |  |  |  |  |  |  |  |  |  |  |  | 8.64 min | 
5 | O=C(O)CC(=O)O [Malonic acid] |  |  |  |  |  |  |  |  |  |  |  |  |  |  | 1.52 min | 
6 | Cc1ccc(C(=O)NCC(=O)O)cc1 [4-methylhippuric acid] |  |  |  |  |  |  |  |  |  |  |  |  |  |  | 14.5 min | 
7 | O=C(C=Cc1ccc(O)c(O)c1)OC(Cc1ccc(O)c(O)c1)C(=O)O (stereo not given) [Rosmarinic acid] | 79.8 min | 31 min | 2.28 min | 18.4 min | 4.8 min | 11.5 min | 13.7 min |  | 30 min | 14.6 min | 8.46 min | 5.41 min | 9.87 min | 9.57 min |  | LC retention time [3]: 39.2 min; LC retention time [6]: 8.18 min
8 | COc1cccc(O)c1C(=O)O [6-Methoxysalicyclic acid] |  |  |  |  |  |  |  |  |  |  |  |  |  |  | 22.1 min | 
9 | Cc1cccc(C(=O)NCC(=O)O)c1 [3-methylhippuric acid] |  |  |  |  |  |  |  |  |  |  |  |  |  |  | 14.8 min | 
10 | Oc1cc(O)c2c(c1)OC(c1ccc(O)c(O)c1)C(O)C2 (single isomer, unassigned; (-)) [(-)-Epicatechin] |  | 16.8 min | 2.32 min | 11.3 min | 3.43 min |  | 11.5 min | 1.99 min | 15.9 min |  | 4.95 min | 3.7 min |  |  |  | 
11 | O=Cc1ccc(O)cc1O [2,4-dihydroxybenzaldehyde] |  |  |  |  |  |  |  |  |  |  |  |  |  |  | 14.7 min | 
12 | Oc1ccc(C=Cc2cc(O)cc(O)c2)cc1 [Resveratrol] | 85.7 min | 31.6 min | 2.88 min | 20 min | 5.18 min | 14.7 min | 14.7 min | 2.96 min | 38.8 min | 17.9 min | 9.3 min | 5.24 min | 10.4 min | 10.8 min |  | LC retention time [15]: 2.48 min
13 | Oc1cc(O)c2cc(O)c(-c3ccc(O)c(O)c3)[o+]c2c1 [Cyanidin] |  | 29.1 min | 3.19 min |  |  | 5.63 min |  | 3.17 min |  |  |  | 3.52 min |  | 10.8 min |  | 
14 | O=c1cc(-c2ccc(O)c(O)c2)oc2cc(O)cc(O)c12 [Luteolin] | 91.1 min |  | 2.97 min | 22.6 min | 5.79 min | 17.1 min | 15.3 min | 3.57 min | 42.1 min | 20.2 min | 9.48 min | 6.42 min | 10.8 min | 18.6 min |  | LC retention time [2]: 3.75 min; LC retention time [3]: 47 min; LC retention time [6]: 9.3 min; LC retention time [22]: 7.14 min; LC retention time [23]: 7.52 min
15 | COC(=O)c1ccc(O)c(OC)c1 [Methyl vanillate] |  |  |  |  |  |  |  |  |  |  |  | 5.37 min |  |  | 23 min | 

— the RepoRT retention time repository (doi:10.1016/j.foodchem.2021.129757)
